The source made the active and inactive calls. The rule behind the calls is not given here.
Molecular target: Prostaglandin E2 receptor EP2 subtype (Homo sapiens) (UniProt P43116)
Experiment: EP2 receptor modulators, dose response, cell-based, human EP2, PGE2 EC50 shift (AID 1421)
Settings: EP2-expressing cells, PGE2 EC50 shift by compound

Chain of Prostaglandin E2 receptor EP2 subtype (Homo sapiens) (P43116 whole entry, looked up): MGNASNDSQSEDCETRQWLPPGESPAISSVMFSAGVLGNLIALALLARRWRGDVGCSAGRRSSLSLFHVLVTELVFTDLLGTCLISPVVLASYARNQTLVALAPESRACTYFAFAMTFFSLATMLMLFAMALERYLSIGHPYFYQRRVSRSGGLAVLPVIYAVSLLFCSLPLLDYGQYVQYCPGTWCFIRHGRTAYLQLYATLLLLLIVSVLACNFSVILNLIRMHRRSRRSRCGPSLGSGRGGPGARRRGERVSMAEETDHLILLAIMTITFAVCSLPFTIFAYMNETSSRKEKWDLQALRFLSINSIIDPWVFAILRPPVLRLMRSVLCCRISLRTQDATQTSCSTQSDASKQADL

| Structure (SMILES) | outcome |
| --- | --- |
| CCOCC(=O)Nc1sc2c(c1C(=O)OCC)CCCC2 | active |
| CC1CCc2c(sc(N)c2C(=O)OC(C)C)C1 (stereo not given) | active |
| Clc1ccc(COn2c(-c3ccccc3)nc3ccccc32)cc1 | active |
| O=C1C2C3c4ccccc4C(c4ccccc43)[C@@H]2c2nc3ccccc3n21 (stereo not given in full) | active |
| Cc1sc(NC(=O)c2ccccc2F)c(CN2CCCCC2)c1C | active |
| COc1ccc(S(=O)(=O)N2c3cc(C)ccc3OCC2C(C)(C)C)cc1 (stereo not given) | active |
| CCCCn1c(=O)c2ccccc2c2ccccc2c1=O | active |
| COCCn1c(SC(C(=O)Nc2cc(C)ccc2OC)c2ccccc2)nnc1-c1ccc(Cl)cc1 (stereo not given) | active |
| COc1ccccc1CNc1cc(C)ccc1C | active |
| CCOC(=O)c1cc(CC)sc1NC(=O)c1ccc2c(c1)OCCO2 | active |
| COC(=O)c1sc2nc(N3CCCCC3)c3c(c2c1N)CCCC3 | active |
| C(=N\N(Cc1ccccc1)c1ccccc1)/c1cccnc1 | active |
| CCCSc1ncnc2sc(C)c(C)c12 | active |
| COc1ccc(-c2nc(NC(C)=O)sc2-c2ccccc2)cc1 | active |
| O=C(NCc1ccc(F)cc1)c1ccccc1OCc1ccccc1 | active |

Same assay, conditions: EP2-expressing cells, PGE2 EC50 shift by compound; measured here: PGE2 EC50 at 6.7 uM compound

| Structure (SMILES) | PGE2 EC50 with compound |
| --- | --- |
| Cc1nn(Cc2c(Cl)cccc2Cl)c(C)c1C(=O)NCc1ccc(C)n1C | 1.18 nM |
| COc1ccc(N2C(=O)N(Cc3ccc(C)cc3)c3ccccc3S2(=O)=O)cc1 | 2.81 nM |
| Cc1ccc(N=Cc2cc(Cc3ccccc3Cl)cc([N+](=O)[O-])c2O)c(O)c1 | 0.6 nM |
| CCn1c2ccc(Cl)cc2c2nc3ccccc3nc21 | 0.98 nM |
| COc1cc(OC)c(OC)cc1CNCCc1ccc(OC)c(OC)c1 | 1.3 nM |
| CCOCC(=O)Nc1sc2c(c1C(=O)OCC)CCCC2 | 1.18 nM |
| CC1(C)Cc2nc3sc4c(SCC(=O)NC(c5ccccc5)c5ccccc5)ncnc4c3cc2CO1 | 1.48 nM |
| Cc1nc(SCCC(=O)O)c2ccccc2n1 | 2.93 nM |
| CCOC(=O)c1ccccc1NC1c2ccccc2C(=O)N1c1cc(C)ccn1 (stereo not given) | 1.13 nM |
| Cc1ccc2[nH]c3c(=S)nc[nH]c3c2c1 | 2.83 nM |
| O=C(Nc1ccccc1N1CCCC1)c1cc2ccccc2o1 | 1.46 nM |
| Cc1ccc(C(C)C)c(OCc2ccc(-c3nnco3)cc2)c1 | 2.51 nM |
| COC(=O)c1c(-c2ccc(F)cc2)csc1NC(=O)C1CCCO1 (stereo not given) | 2.48 nM |
| O=C(/C(=C/O)N=Nc1ccccc1)c1ccc(Cl)cc1 | 1.12 nM |
| Cc1cc(OCC(=O)OC(C)C)c2c3c(c(=O)oc2c1)CCCC3 | 0.81 nM |
| CCc1ccccc1NC(=S)N(Cc1ccco1)C(C)c1cccs1 (stereo not given) | 0.9 nM |
| CC1CCc2c(sc(N)c2C(=O)OC(C)C)C1 (stereo not given) | 0.91 nM |
| CCCCn1c(=O)c(C(=O)NCc2ccco2)c(O)c2ccccc21 | 2.62 nM |
| O=C(C(c1ccccc1)c1ccccc1)N1CCCc2ccccc21 | 0.71 nM |
| Cc1ccc2oc(=O)n(Cc3ccccc3OC(C)C)c2c1 | 0.64 nM |
| CCN(CC)CCN1C(=O)c2cccc3cc(N)cc(c23)C1=O | 2.64 nM |
| COc1ccc(-c2cc(C(F)(F)F)nc(NCc3ccco3)n2)cc1OC | 0.53 nM |
| Cc1ccc(-c2csc3ncnc(N4CCc5ccccc5C4)c23)cc1 | 0.93 nM |

| Structure (SMILES) | PGE2 EC50 with compound |
| --- | --- |
| Cc1occc1-c1nnc(SCC(=O)Nc2ccccc2N2CCCCC2)n1C | 2.71 nM |
| O=C(Cc1ccc(F)cc1)Nc1ccccc1Sc1ccccc1 | 0.7 nM |
| CC(C)CCn1c(O)c(N=NC(=O)c2ccco2)c2ccccc21 | 1.03 nM |
| CC/C(=C\C1CCCCC1)C(NP(=O)(c1ccccc1)c1ccccc1)c1ccccc1 (stereo not given) | 1.01 nM |
| CCOc1ccccc1Cn1c(=O)oc2ccc(C)cc21 | 1.09 nM |
| CCOC(=O)c1c(C=O)c(C)n(Cc2ccc(C)cc2)c1C | 1.31 nM |
| O=C(O)c1ccc(-c2ccccc2C(F)(F)F)o1 | 0.92 nM |
| Cc1cccc(N=N/C(=C\O)C(=O)c2ccc(Br)cc2)c1 | 0.31 nM |
| CCOC(=O)c1ccc2nc(C(F)(F)F)[nH]c(=O)c2c1 | 1.19 nM |
| COC(=O)c1sc2[nH]c(=S)n(N)c(=O)c2c1C | 1.06 nM |
| Clc1ccc(COn2c(-c3ccccc3)nc3ccccc32)cc1 | 2.65 nM |
| COc1cc(S(=O)(=O)N(Cc2cccnc2)Cc2ccco2)ccc1-n1cnnn1 | 1.45 nM |
| CCOC(=O)c1c(NC(=O)CSC(=S)N(C)C)sc(C)c1C | 0.86 nM |
| CC(C)Cc1nc2sc3c(=O)[nH]cnc3c2c2c1CCC2 | 1.48 nM |
| Cc1ccc(S(=O)(=O)n2c3ccc(Cl)cc3c3nc(C)sc32)cc1 | 0.44 nM |
| CC(Sc1cnc2ccccc2n1)C(=O)O (stereo not given) | 2.61 nM |
| Cc1nnc(SCC(=O)NC2CCCCC2)n1C1CCCCC1 | 2.7 nM |
| CCOC(=O)c1c(NC(=O)c2cccs2)sc2c1CCN(C(=O)OCC)C2 | 1.53 nM |
| Cc1ccccc1C(=O)Nc1ccccc1Sc1ccccc1 | 0.86 nM |
| O=C1C2C3c4ccccc4C(c4ccccc43)[C@@H]2c2nc3ccccc3n21 (stereo not given in full) | 0.7 nM |
| Cc1ccsc1-c1n[nH]c(=S)n1C1CCCCC1 | 1.2 nM |
| C#CCn1c(S(=O)(=O)Cc2ccc(F)cc2)nc(-c2ccccc2)c1-c1ccccc1 | 0.95 nM |
